Test results as given in article PMC9866191, “Novel 9-Benzylaminoacridine Derivatives as Dual Inhibitors of Phosphodiesterase 5 and Topoisomerase II for the Treatment of Colon Cancer” (Molecules, 2023).

Legend:
Experiment in all cases: NCI-60 one-dose screen
Assay type in all cases: cell-based
LOX IMVI = conditions: Homo sapiens, Melanoma panel, single dose 10^−5 M, read-out: Growth inhibition %
TK-10 = conditions: Homo sapiens; TK-10, Renal Cancer panel; single dose 10^−5 M; read-out: Growth inhibition %
A498 = conditions: Homo sapiens; A498, Renal Cancer panel; single dose 10^−5 M; read-out: Growth inhibition %
HCC-2998 = conditions: Homo sapiens; HCC-2998, Colon Cancer panel; single dose 10^−5 M; read-out: Growth inhibition %
T-47D = conditions: Homo sapiens, T47D, Breast Cancer panel, single dose 10^−5 M, read-out: Growth inhibition %
SK-OV-3 = conditions: Homo sapiens; SK-OV-3, Ovarian Cancer panel; single dose 10^−5 M; read-out: Growth inhibition %
NCI-H460 = conditions: Homo sapiens; NCI-H460, Non-small cell lung panel; single dose 10^−5 M; read-out: Growth inhibition %
HOP-92 = conditions: Homo sapiens; HOP-92, Non-small cell lung panel; single dose 10^−5 M; read-out: Growth inhibition %
NCI-H23 = conditions: Homo sapiens; NCI-H23, Non-small cell lung panel; single dose 10^−5 M; read-out: Growth inhibition %
NCI/ADR-RES = conditions: Homo sapiens, Ovarian Cancer panel, single dose 10^−5 M, read-out: Growth inhibition %
MCF7 = conditions: Homo sapiens; MCF7, Breast Cancer panel; single dose 10^−5 M; read-out: Growth inhibition %
HOP-62 = conditions: Homo sapiens; HOP-62, Non-small cell lung panel; single dose 10^−5 M; read-out: Growth inhibition %
U251 = conditions: Homo sapiens, U-251; U251, CNS Cancer panel; single dose 10^−5 M; read-out: Growth inhibition %
HCT-116 = conditions: Homo sapiens, read-out: Growth inhibition %
UACC-257 = conditions: Homo sapiens; UACC-257, Melanoma panel; single dose 10^−5 M; read-out: Growth inhibition %
OVCAR-5 = conditions: Homo sapiens; OVCAR-5, Ovarian Cancer panel; single dose 10^−5 M; read-out: Growth inhibition %
RPMI-8226 = conditions: Homo sapiens; RPMI-8226, Leukemia panel; single dose 10^−5 M; read-out: Growth inhibition %
MDA-MB-468 = conditions: Homo sapiens; MDA-MB-468, Breast Cancer panel; single dose 10^−5 M; read-out: Growth inhibition %
A549/ATCC = conditions: Homo sapiens, Non-small cell lung panel, single dose 10^−5 M, read-out: Growth inhibition %
SK-MEL-2 = conditions: Homo sapiens; SK-MEL-2, Melanoma panel; single dose 10^−5 M; read-out: Growth inhibition %
SF-295 = conditions: Homo sapiens; SF-295, CNS Cancer panel; single dose 10^−5 M; read-out: Growth inhibition %
UACC-62 = conditions: Homo sapiens; UACC-62, Melanoma panel; single dose 10^−5 M; read-out: Growth inhibition %
SN12C = conditions: Homo sapiens, Renal Cancer panel, single dose 10^−5 M, read-out: Growth inhibition %
SF-539 = conditions: Homo sapiens; SF-539, CNS Cancer panel; single dose 10^−5 M; read-out: Growth inhibition %
M14 = conditions: Homo sapiens; M14, Melanoma panel; single dose 10^−5 M; read-out: Growth inhibition %
MALME-3M = conditions: Homo sapiens, Melanoma panel, single dose 10^−5 M, read-out: Growth inhibition %
SNB-19 = conditions: Homo sapiens; SNB-19, CNS Cancer panel; single dose 10^−5 M; read-out: Growth inhibition %
NCI-H522 = conditions: Homo sapiens; NCI-H522, Non-small cell lung panel; single dose 10^−5 M; read-out: Growth inhibition %
PC-3 = conditions: Homo sapiens; PC-3, Prostate Cancer panel; single dose 10^−5 M; read-out: Growth inhibition %
OVCAR-4 = conditions: Homo sapiens; OVCAR-4, Ovarian Cancer panel; single dose 10^−5 M; read-out: Growth inhibition %
RXF 393 = conditions: Homo sapiens; RXF 393, Renal Cancer panel; single dose 10^−5 M; read-out: Growth inhibition %
NCI-H322M = conditions: Homo sapiens, Non-small cell lung panel, single dose 10^−5 M, read-out: Growth inhibition %

Compound | inhibition at 10 µM (LOX IMVI) [%] | inhibition at 10 µM (TK-10) [%] | inhibition at 10 µM (A498) [%] | inhibition at 10 µM (HCC-2998) [%] | inhibition at 10 µM (T-47D) [%] | inhibition at 10 µM (SK-OV-3) [%] | inhibition at 10 µM (NCI-H460) [%] | inhibition at 10 µM (HOP-92) [%] | inhibition at 10 µM (NCI-H23) [%] | inhibition at 10 µM (NCI/ADR-RES) [%] | inhibition at 10 µM (MCF7) [%] | inhibition at 10 µM (HOP-62) [%] | inhibition at 10 µM (U251) [%] | inhibition at 10 µM (HCT-116) [%] | inhibition at 10 µM (UACC-257) [%] | inhibition at 10 µM (OVCAR-5) [%] | inhibition at 10 µM (RPMI-8226) [%] | inhibition at 10 µM (MDA-MB-468) [%] | inhibition at 10 µM (A549/ATCC) [%] | inhibition at 10 µM (SK-MEL-2) [%] | further results
Cc1ccccc1CNc1c2ccccc2nc2ccccc12 [Compound 2, Acridin-9-yl-(2-methylbenzyl)-amine] | 90.9 | 61.4 | 102 | 83.8 | 75.5 | 59.2 | 93.1 | 101 | 76.6 | 75.2 | 93.1 | 71.9 | 78.7 | 92.1 | 67.3 | 63.3 | 109 | 94.2 | 80.3 | 59.9 | inhibition at 10 µM (SF-295): 70.5%; inhibition at 10 µM (UACC-62): 53.3%; inhibition at 10 µM (SN12C): 75.7%; inhibition at 10 µM (SF-539): 96.7%; inhibition at 10 µM (M14): 86.8%; inhibition at 10 µM (MALME-3M): 84.8%; inhibition at 10 µM (SNB-19): 72.9%; inhibition at 10 µM (NCI-H522): 50%; inhibition at 10 µM (PC-3): 74.4%; inhibition at 10 µM (OVCAR-4): 67.1%; inhibition at 10 µM (RXF 393): 92.2%; inhibition at 10 µM (NCI-H322M): 71%
Cc1cccc(CNc2c3ccccc3nc3ccccc23)c1 [Compound 3, Acridin-9-yl-(3-methylbenzyl)-amine] | 93.8 | 61.6 | 102 | 96.4 | 74.7 | 54.7 | 91.3 | 93 | 70.3 | 74.3 | 93.8 | 59.6 | 76.3 | 90.2 | 63.8 | 64.2 | 120 | 100 | 77.4 | 62 | inhibition at 10 µM (SF-295): 74.7%; inhibition at 10 µM (UACC-62): 57.2%; inhibition at 10 µM (SN12C): 73.9%; inhibition at 10 µM (SF-539): 88.3%; inhibition at 10 µM (M14): 77.2%; inhibition at 10 µM (MALME-3M): 85.9%; inhibition at 10 µM (SNB-19): 70.3%; inhibition at 10 µM (NCI-H522): 47.9%; inhibition at 10 µM (PC-3): 75.1%; inhibition at 10 µM (OVCAR-4): 72.1%; inhibition at 10 µM (RXF 393): 102%; inhibition at 10 µM (NCI-H322M): 59.7%
Cc1ccc(CNc2c3ccccc3nc3ccccc23)cc1 [Compound 4, Acridin-9-yl-(4-methylbenzyl)-amine] | 88.2 | 64.2 | 92.4 | 103 | 71.9 | 53.1 | 91.2 | 96.8 | 70.7 | 73.9 | 91 | 56.4 | 74 | 88 | 60.6 | 61.9 | 111 | 92.8 | 74 | 57.3 | inhibition at 10 µM (SF-295): 68.7%; inhibition at 10 µM (UACC-62): 56.6%; inhibition at 10 µM (SN12C): 75.1%; inhibition at 10 µM (SF-539): 81.9%; inhibition at 10 µM (M14): 72%; inhibition at 10 µM (MALME-3M): 83.8%; inhibition at 10 µM (SNB-19): 70.3%; inhibition at 10 µM (NCI-H522): 51%; inhibition at 10 µM (PC-3): 75.7%; inhibition at 10 µM (OVCAR-4): 75.5%; inhibition at 10 µM (RXF 393): 89.7%; inhibition at 10 µM (NCI-H322M): 60.2%
COc1ccccc1CNc1c2ccccc2nc2ccccc12 [Compound 5, Acridin-9-yl-(2-methoxybenzyl)-amine] | 81.1 | 44.5 | 86.7 | 61.1 | 53.8 | 38.6 | 89.8 | 81.8 | 69.1 | 65.2 | 83.2 | 55.5 | 61.4 | 87.3 | 35.9 | 50.2 | 91.9 | 71.7 | 65.8 | 26.5 | inhibition at 10 µM (SF-295): 62.6%; inhibition at 10 µM (UACC-62): 39.5%; inhibition at 10 µM (SN12C): 65.3%; inhibition at 10 µM (SF-539): 78.8%; inhibition at 10 µM (M14): 59.1%; inhibition at 10 µM (MALME-3M): 54.1%; inhibition at 10 µM (SNB-19): 64.2%; inhibition at 10 µM (NCI-H522): 37.6%; inhibition at 10 µM (PC-3): 56.8%; inhibition at 10 µM (OVCAR-4): 57.8%; inhibition at 10 µM (RXF 393): 69.4%; inhibition at 10 µM (NCI-H322M): 51.4%
